Reference: US20250084087A1, “BICYCLIC HETEROCYCLES AS MRGPRX2 ANTAGONISTS” (Incyte Corporation, priority 2023, published 2025)

Columns and labels:
Type in all cases: cell-based
MRGPRX2 [1] = molecular target: T1, MRGPRX2 (Homo sapiens, UniProt Q96LB1); test: MRGPRX2 FLIPR calcium mobilization assay; design: host or cells: CHO-K1; conditions: CHO-K1 cells stably expressing human MRGPRX2; Ca2+ release; agonist Cortistatin-14 at EC80
T1 sequence (Q96LB1 1-330): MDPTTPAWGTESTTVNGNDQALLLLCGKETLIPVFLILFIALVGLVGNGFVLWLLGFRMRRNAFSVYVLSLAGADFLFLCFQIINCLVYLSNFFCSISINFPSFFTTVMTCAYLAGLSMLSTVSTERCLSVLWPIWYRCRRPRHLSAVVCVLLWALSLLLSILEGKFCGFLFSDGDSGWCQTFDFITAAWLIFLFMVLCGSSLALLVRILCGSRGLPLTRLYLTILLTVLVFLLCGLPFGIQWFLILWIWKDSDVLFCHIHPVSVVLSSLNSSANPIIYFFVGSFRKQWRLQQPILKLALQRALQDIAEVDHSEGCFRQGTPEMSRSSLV
How it was run: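 CHO-K1 cells stably expressing the receptor, loaded with Calcium 6 dye, then preincubated 30 min at r.t. with compound in HBSS/20 mM HEPES pH 7.4. Cortistatin-14 at EC80 added; baseline-adjusted maximum RFU read over 110 s. IC50 from 3- or 4-parameter Hill fit.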

MRGPRX2 [2] = molecular target: T1, MRGPRX2; test: MRGPRX2 IP1 HTRF assay; design: host or cells: CHO-K1; conditions: CHO-K1 cells stably expressing human MRGPRX2; IP1 accumulation; agonist Cortistatin 14 1 μM
How it was run: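 CHO-K1 cells stably expressing human MRGPRX2, preincubated with compound 1 h at 37 °C, then stimulated with 1 μM Cortistatin 14 for 1 h. IP1 measured by HTRF against standard curve, normalized to DMSO and reference antagonist controls; IC50 from 3- or 4-parameter Hill fit.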

MRGPRX2 [3] = molecular target: T1, MRGPRX2; test: MRGPRX2 β-Arrestin recruitment assay (PathHunter); design: host or cells: CHO-K1 (PathHunter); conditions: PathHunter CHO-K1 MRGPRX2 β-Arrestin cell line; agonist Cortistatin 14 0.25 μM
How it was run: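 CHO-K1 PathHunter cells co-expressing ProLink-tagged MRGPRX2 and enzyme-acceptor-tagged β-arrestin were preincubated with compound 1 h at 37° C., then stimulated with cortistatin-14 (0.25 μM final) for 90 min. Enzyme-complementation luminescence read after 1 h detection; data normalized to DMSO and reference antagonist, IC50 from 3- or 4-parameter Hill fit.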

Measured: IC50

CCc1cc(NCC2(c3ccc(F)cc3)CN(C(N)=O)C2)n2nc(C(F)(F)F)cc2n1 [Example 68, 3-(((5-Ethyl-2-(trifluoromethyl)pyrazolo[1,5-a]pyrimidin-7-yl)amino)methyl)-3-(4-fluorophenyl)azetidine-1-carboxamide]
0.1 to 100 nM: all assays above

OCCNC1CC(CNc2cc(C(F)(F)F)nc3cc(Br)nn23)(c2ccccc2)C1 (stereo not drawn) [Example 44, 2-((3-(((2-Bromo-5-(trifluoromethyl)pyrazolo[1,5-a]pyrimidin-7-yl)amino)methyl)-3-phenylcyclobutyl)amino)ethan-1-ol]
0.1 to 100 nM: all assays above

NC(=O)N1CC(CNc2cc(C(F)(F)F)nc3cc(Cl)nn23)(c2ccc(F)cc2)C1 [Example 57, 3-(((2-Chloro-5-(trifluoromethyl)pyrazolo[1,5-a]pyrimidin-7-yl)amino)methyl)-3-(4-fluorophenyl)azetidine-1-carboxamide]
0.1 to 100 nM: all assays above
